Assay results published in publication PMC5218480 (PLoS ONE, 2017).

Tested on: MV-4-11 cells
Assay: Gene expression microarray analysis (Affymetrix PrimeView) and GSEA
Assay type: cell-based, human
Set-up: RFU PODN (11730768_x_at) / Fold change /veh PODN (11730768_x_at) / RFU LINC00158 (11744669_a_at) / Fold change /veh LINC00158 (11744669_a_at) / RFU DUSP10 (11751237_a_at) / Fold change /veh DUSP10 (11751237_a_at) / RFU ID3 (11757404_x_at) / Fold change /veh ID3 (11757404_x_at) / RFU PLEKHG5 (11737974_s_at) / Fold change /veh PLEKHG5 (11737974_s_at) / RFU LRRC4B (11730491_at) / Fold change /veh LRRC4B (11730491_at) / RFU GIMAP4 (11747438_a_at) / Fold change /veh GIMAP4 (11747438_a_at) / RFU KRT8 (11758183_x_at) / Fold change /veh KRT8 (11758183_x_at) / RFU CNN1 (11734310_a_at) / Fold change /veh CNN1 (11734310_a_at) / RFU VPS37D (11726825_at) / Fold change /veh VPS37D (11726825_at) / RFU C10orf10 (11716522_x_at) / Fold change /veh C10orf10 (11716522_x_at) / RFU KIR2DL2 /// KIR2DL4 /// KIR2DL5A /// KIR2DL5B /// KIR2DS1 /// KIR2DS2 /// KIR2DS3 /// KIR2DS4 /// KIR3DL3 /// KIR3DL3 /// KIR3DS1 (11738374_at) / Fold change /veh KIR2DL2 /// KIR2DL4 /// KIR2DL5A /// KIR2DL5B /// KIR2DS1 /// KIR2DS2 /// KIR2DS3 /// KIR2DS4 /// KIR3DL3 /// KIR3DL3 /// KIR3DS1 (11738374_at) / RFU C1QL1 (11718748_at) / Fold change /veh C1QL1 (11718748_at) / RFU TMPRSS4 (11747572_a_at) / Fold change /veh TMPRSS4 (11747572_a_at) / RFU HAMP (11756126_x_at) / Fold change /veh HAMP (11756126_x_at) / RFU RNFT2 (11725882_a_at) / Fold change /veh RNFT2 (11725882_a_at) / RFU NR4A2 (11747474_a_at) / Fold change /veh NR4A2 (11747474_a_at) / RFU ABCC12 (11746883_a_at) / Fold change /veh ABCC12 (11746883_a_at) / RFU TMEM136 (11760407_x_at) / Fold change /veh TMEM136 (11760407_x_at) / RFU CLDN22 /// WWC2 (11732394_at) / Fold change /veh CLDN22 /// WWC2 (11732394_at) / RFU HLA-DPB1 (11760878_x_at) / Fold change /veh HLA-DPB1 (11760878_x_at) / RFU SPINT1 (11716480_a_at) / Fold change /veh SPINT1 (11716480_a_at) / RFU GAP43 (11754022_s_at) / Fold change /veh GAP43 (11754022_s_at) / RFU A4GNT (11735810_at) / Fold change /veh A4GNT (11735810_at) / RFU PRB3 (11715151_x_at) / Fold change /veh PRB3 (11715151_x_at) / RFU TUBB4B (11761932_at) / Fold change /veh TUBB4B (11761932_at) / RFU CAPN14 (11732068_a_at) / Fold change /veh CAPN14 (11732068_a_at) / RFU TMCC2 (11721928_a_at) / Fold change /veh TMCC2 (11721928_a_at) / RFU IRGQ (11745062_a_at) / Fold change /veh IRGQ (11745062_a_at) / RFU FAM174B (11720279_a_at) / Fold change /veh FAM174B (11720279_a_at) / RFU TMPRSS4 (11748680_a_at) / Fold change /veh TMPRSS4 (11748680_a_at) / RFU FAM212B (11763350_a_at) / Fold change /veh FAM212B (11763350_a_at) / RFU PLEKHG5 (11743358_a_at) / Fold change /veh PLEKHG5 (11743358_a_at) / RFU ZSCAN30 (11745921_a_at) / Fold change /veh ZSCAN30 (11745921_a_at) / RFU CMKLR1 (11741424_a_at) / Fold change /veh CMKLR1 (11741424_a_at) / RFU LOC101060620 /// MAPK8IP1 (11723275_at) / Fold change /veh LOC101060620 /// MAPK8IP1 (11723275_at) / RFU SPTSSB (11747773_x_at) / Fold change /veh SPTSSB (11747773_x_at) / RFU PRSS12 (11739890_at) / Fold change /veh PRSS12 (11739890_at) / RFU BIN1 (11741810_x_at) / Fold change /veh BIN1 (11741810_x_at) / RFU WNT11 (11732464_a_at) / Fold change /veh WNT11 (11732464_a_at) / RFU C10orf10 (11716521_a_at) / Fold change /veh C10orf10 (11716521_a_at) / RFU C5orf56 (11738089_at) / Fold change /veh C5orf56 (11738089_at) / RFU CYB561 (11721691_x_at) / Fold change /veh CYB561 (11721691_x_at) / RFU ANKRD19P (11752326_a_at) / Fold change /veh ANKRD19P (11752326_a_at) / RFU OR2T12 /// OR2T33 /// OR2T8 (11738714_s_at) / Fold change /veh OR2T12 /// OR2T33 /// OR2T8 (11738714_s_at) / RFU VCAN (11748164_a_at) / Fold change /veh VCAN (11748164_a_at) / RFU JSRP1 (11732532_at) / Fold change /veh JSRP1 (11732532_at) / RFU KRTAP10-11 (11738290_x_at) / Fold change /veh KRTAP10-11 (11738290_x_at) / RFU MYO3A (11730013_a_at) / Fold change /veh MYO3A (11730013_a_at) / RFU EBF3 (11725865_a_at) / Fold change /veh EBF3 (11725865_a_at) / RFU CAMK2N1 (11719241_x_at) / Fold change /veh CAMK2N1 (11719241_x_at) / RFU C5orf56 (11738088_a_at) / Fold change /veh C5orf56 (11738088_a_at) / RFU OLFML3 (11715873_a_at) / Fold change /veh OLFML3 (11715873_a_at) / RFU LOC100653217 /// NTM (11731650_a_at) / Fold change /veh LOC100653217 /// NTM (11731650_a_at) / RFU MAPK11 (11762145_a_at) / Fold change /veh MAPK11 (11762145_a_at) / RFU FIZ1 (11724087_x_at) / Fold change /veh FIZ1 (11724087_x_at) / RFU OASL (11726364_x_at) / Fold change /veh OASL (11726364_x_at) / RFU SOX15 (11748057_x_at) / Fold change /veh SOX15 (11748057_x_at) / RFU CD79A (11719716_a_at) / Fold change /veh CD79A (11719716_a_at) / RFU HIST1H1D (11736915_at) / Fold change /veh HIST1H1D (11736915_at) / RFU CASKIN2 (11723855_a_at) / Fold change /veh CASKIN2 (11723855_a_at) / RFU LOC730098 (11760151_x_at) / Fold change /veh LOC730098 (11760151_x_at) / RFU OR4N2 (11742367_at) / Fold change /veh OR4N2 (11742367_at) / RFU PRRT2 (11749266_a_at) / Fold change /veh PRRT2 (11749266_a_at) / RFU SNX32 (11753110_a_at) / Fold change /veh SNX32 (11753110_a_at) / RFU CDHR5 (11726645_a_at) / Fold change /veh CDHR5 (11726645_a_at) / RFU RCAN1 (11760418_a_at) / Fold change /veh RCAN1 (11760418_a_at) / RFU FAM167A (11723789_a_at) / Fold change /veh FAM167A (11723789_a_at) / RFU FAM26E (11764081_at) / Fold change /veh FAM26E (11764081_at) / RFU ISYNA1 (11749810_s_at) / Fold change /veh ISYNA1 (11749810_s_at) / RFU ACY1 (11761880_at) / Fold change /veh ACY1 (11761880_at) / RFU 11764098_at / Fold change /veh 11764098_at / RFU SAMD14 (11745864_x_at) / Fold change /veh SAMD14 (11745864_x_at) / RFU NPB (11741838_a_at) / Fold change /veh NPB (11741838_a_at) / RFU TMPRSS6 (11731388_a_at) / Fold change /veh TMPRSS6 (11731388_a_at) / RFU KRTAP10-2 (11738614_at) / Fold change /veh KRTAP10-2 (11738614_at) / RFU ARHGAP8 /// PRR5-ARHGAP8 (11727945_x_at) / Fold change /veh ARHGAP8 /// PRR5-ARHGAP8 (11727945_x_at) / RFU KRTAP5-7 /// NADSYN1 (11734609_at) / Fold change /veh KRTAP5-7 /// NADSYN1 (11734609_at) / RFU RASL12 (11751679_a_at) / Fold change /veh RASL12 (11751679_a_at) / RFU CDKN2B (11736163_a_at) / Fold change /veh CDKN2B (11736163_a_at) / RFU PRF1 (11729649_at) / Fold change /veh PRF1 (11729649_at) / RFU, ZNF638 /// ZNF638-IT1 / Fold change vs veh, ZNF638 /// ZNF638-IT1 / RFU, PANK3 / Fold change vs veh, PANK3 / RFU, SH3YL1 / Fold change vs veh, SH3YL1 / RFU, ZEB2 / Fold change vs veh, ZEB2 / RFU, NRIP1 / Fold change vs veh, NRIP1 / RFU, PTTG1IP / Fold change vs veh, PTTG1IP / RFU, CAPN2 / Fold change vs veh, CAPN2 / RFU, MED14 / Fold change vs veh, MED14 / RFU, SNORA58 / Fold change vs veh, SNORA58 / RFU, C1orf63 / Fold change vs veh, C1orf63 / RFU, LRRFIP1 / Fold change vs veh, LRRFIP1 / RFU, NDUFAF7 / Fold change vs veh, NDUFAF7 / RFU, SLC12A2 / Fold change vs veh, SLC12A2 / RFU, IBTK / Fold change vs veh, IBTK / RFU, ESF1 / Fold change vs veh, ESF1 / Fold change vs veh, TMEM50B / RFU, TAOK1 / Fold change vs veh, TAOK1 / RFU, ACBD3 / Fold change vs veh, ACBD3 / RFU, TMA16 / Fold change vs veh, TMA16 / RFU, RWDD3 / Fold change vs veh, RWDD3 / RFU, BCAT1 / Fold change vs veh, BCAT1 / RFU, EDEM3 / Fold change vs veh, EDEM3 / RFU, TMEM33 / Fold change vs veh, TMEM33 / RFU, WDR75 / Fold change vs veh, WDR75 / RFU, AHCTF1 / Fold change vs veh, AHCTF1 / RFU, TFRC / Fold change vs veh, TFRC / RFU, ZDHHC17 / Fold change vs veh, ZDHHC17 / RFU, NOM1 / Fold change vs veh, NOM1 / RFU, ARL8B / Fold change vs veh, ARL8B / RFU, ZBTB11 / Fold change vs veh, ZBTB11 / RFU, TAMM41 / Fold change vs veh, TAMM41 / RFU, KIAA1704 /// LOC100996395 / Fold change vs veh, KIAA1704 /// LOC100996395 / RFU, ING1 / Fold change vs veh, ING1 / RFU, TRMT61B / Fold change vs veh, TRMT61B / RFU, FUBP3 / Fold change vs veh, FUBP3 / RFU, TP53 / Fold change vs veh, TP53 / RFU, TNKS2 / Fold change vs veh, TNKS2 / RFU, ZFP14 / Fold change vs veh, ZFP14 / RFU, ACTR2 / Fold change vs veh, ACTR2 / RFU, PPP3R1 / Fold change vs veh, PPP3R1 / RFU, PIK3R1 / Fold change vs veh, PIK3R1 / RFU, HNRNPA1 / Fold change vs veh, HNRNPA1 / RFU, RNF170 / Fold change vs veh, RNF170 / RFU, ZNF28 / Fold change vs veh, ZNF28 / RFU, RNGTT / Fold change vs veh, RNGTT / RFU, OGT / Fold change vs veh, OGT / RFU, BRD1 / Fold change vs veh, BRD1 / RFU, MARS / Fold change vs veh, MARS / RFU, ZNF655 / Fold change vs veh, ZNF655 / RFU, FAHD1 / Fold change vs veh, FAHD1 / RFU, BDP1 / Fold change vs veh, BDP1 / RFU, LRRCC1 / Fold change vs veh, LRRCC1 / RFU, ARID1A / Fold change vs veh, ARID1A / RFU, ZNF146 / Fold change vs veh, ZNF146 / RFU, ZNF330 / Fold change vs veh, ZNF330 / RFU, GPN3 / Fold change vs veh, GPN3 / RFU, C9orf123 / Fold change vs veh, C9orf123 / RFU, N4BP2L2 / Fold change vs veh, N4BP2L2 / RFU, ARFIP1 / Fold change vs veh, ARFIP1 / RFU, FAM179B / Fold change vs veh, FAM179B / RFU, BCL10 / Fold change vs veh, BCL10 / RFU, UHRF1BP1L / Fold change vs veh, UHRF1BP1L / RFU, BET1 / Fold change vs veh, BET1 / RFU, CNOT2 / Fold change vs veh, CNOT2 / RFU, ZNF268 / Fold change vs veh, ZNF268 / Fold change vs veh, ZNF507 / RFU, DGCR2 / Fold change vs veh, DGCR2 / RFU, WDSUB1 / Fold change vs veh, WDSUB1 / Fold change vs veh, HSP90B1 /// MIR3652 / RFU, ADSS / Fold change vs veh, ADSS / RFU, GK / Fold change vs veh, GK / RFU, ZNF148 / Fold change vs veh, ZNF148 / RFU, TAF9 / Fold change vs veh, TAF9 / RFU, SLC1A5 / Fold change vs veh, SLC1A5 / RFU, SLMO2 / Fold change vs veh, SLMO2 / RFU, ABCC4 / Fold change vs veh, ABCC4 / RFU, LOC101060439 /// RAP1B / Fold change vs veh, LOC101060439 /// RAP1B / RFU, RFX7 / Fold change vs veh, RFX7 / RFU, GTPBP10 / Fold change vs veh, GTPBP10 / RFU, CNEP1R1 / Fold change vs veh, CNEP1R1 / RFU, BIVM-ERCC5 /// ERCC5 / Fold change vs veh, BIVM-ERCC5 /// ERCC5 / RFU, ILF3 / Fold change vs veh, ILF3 / RFU 11762660_at / Fold change /veh 11762660_at / RFU VCAN (11757783_s_at) / Fold change /veh VCAN (11757783_s_at) / RFU DDX43 (11728927_at) / Fold change /veh DDX43 (11728927_at) / RFU KRT8 (11758188_x_at) / Fold change /veh KRT8 (11758188_x_at) / RFU NKD1 (11759106_at) / Fold change /veh NKD1 (11759106_at) / RFU SRD5A1 (11742802_a_at) / Fold change /veh SRD5A1 (11742802_a_at) / RFU TPSAB1 /// TPSB2 (11721975_s_at) / Fold change /veh TPSAB1 /// TPSB2 (11721975_s_at) / RFU GSTM3 (11746129_a_at) / Fold change /veh GSTM3 (11746129_a_at) / RFU IL23R (11737362_x_at) / Fold change /veh IL23R (11737362_x_at) / RFU TMEM51 (11727254_a_at) / Fold change /veh TMEM51 (11727254_a_at) / RFU PIWIL2 (11732686_x_at) / Fold change /veh PIWIL2 (11732686_x_at) / RFU ORM1 (11744905_x_at) / Fold change /veh ORM1 (11744905_x_at) / RFU CCDC152 (11743942_at) / Fold change /veh CCDC152 (11743942_at) / RFU ECM1 (11717891_a_at) / Fold change /veh ECM1 (11717891_a_at) / RFU IL23R (11748794_a_at) / Fold change /veh IL23R (11748794_a_at) / RFU TNFAIP8L3 (11732012_x_at) / Fold change /veh TNFAIP8L3 (11732012_x_at) / RFU MBOAT4 (11741988_at) / Fold change /veh MBOAT4 (11741988_at) / RFU 11764193_at / Fold change /veh 11764193_at / RFU TMEM53 (11763286_at) / Fold change /veh TMEM53 (11763286_at) / RFU MAGEB2 (11727129_at) / Fold change /veh MAGEB2 (11727129_at) / RFU TMEM200A (11744735_a_at) / Fold change /veh TMEM200A (11744735_a_at) / RFU CCDC152 (11751479_a_at) / Fold change /veh CCDC152 (11751479_a_at) / RFU FAM211A (11726209_a_at) / Fold change /veh FAM211A (11726209_a_at) / RFU RGS16 (11746705_a_at) / Fold change /veh RGS16 (11746705_a_at) / RFU VCAN (11755009_s_at) / Fold change /veh VCAN (11755009_s_at) / RFU RHOB (11743442_s_at) / Fold change /veh RHOB (11743442_s_at) / RFU RGS16 (11720943_a_at) / Fold change /veh RGS16 (11720943_a_at) / RFU RGS16 (11720944_at) / Fold change /veh RGS16 (11720944_at) / RFU, VPS4B / Fold change vs veh, VPS4B / RFU, CREB1 / Fold change vs veh, CREB1 / RFU, DNAJC13 / Fold change vs veh, DNAJC13 / RFU, GNAQ / Fold change vs veh, GNAQ / RFU, CDK5R1 / Fold change vs veh, CDK5R1 / RFU, ZRANB3 / Fold change vs veh, ZRANB3 / RFU, CUL4A / Fold change vs veh, CUL4A / RFU, CCNY / Fold change vs veh, CCNY / RFU, UFL1 / Fold change vs veh, UFL1 / RFU, COG3 / Fold change vs veh, COG3 / RFU, DIAPH2 / Fold change vs veh, DIAPH2 / RFU, SKA2 / Fold change vs veh, SKA2 / RFU, AFF3 / Fold change vs veh, AFF3 / RFU, LMF1 / Fold change vs veh, LMF1 / RFU, IPO11 / Fold change vs veh, IPO11 / RFU, DFFB / Fold change vs veh, DFFB / RFU, FOXP1 / Fold change vs veh, FOXP1 / RFU, CARD8 / Fold change vs veh, CARD8 / RFU, STRN3 / Fold change vs veh, STRN3 / RFU, ADK / Fold change vs veh, ADK / RFU, RASSF2 / Fold change vs veh, RASSF2 / RFU, WIPF1 / Fold change vs veh, WIPF1 / RFU, LARP1B / Fold change vs veh, LARP1B / RFU, RASA1 / Fold change vs veh, RASA1 / RFU, RB1 / Fold change vs veh, RB1 / RFU, PPFIA1 / Fold change vs veh, PPFIA1 / RFU, MAT2A / Fold change vs veh, MAT2A / RFU, CCT5 / Fold change vs veh, CCT5 / RFU, WDR92 / Fold change vs veh, WDR92 / RFU, CUX1 / Fold change vs veh, CUX1 / RFU, TTC7A / Fold change vs veh, TTC7A / RFU, TMEM135 / Fold change vs veh, TMEM135 / RFU, DEPTOR / Fold change vs veh, DEPTOR / RFU, CPM / Fold change vs veh, CPM / RFU, DNAJB6 / Fold change vs veh, DNAJB6 / RFU, CACNA2D3 / Fold change vs veh, CACNA2D3 / RFU, DTX4 / Fold change vs veh, DTX4 / RFU, TFCP2 / Fold change vs veh, TFCP2 / RFU, GMCL1 /// GMCL1P1 / Fold change vs veh, GMCL1 /// GMCL1P1 / RFU, AEBP2 / Fold change vs veh, AEBP2 / RFU, SNHG1 /// SNORD22 /// SNORD25 /// SNORD26 /// SNORD27 /// SNORD28 /// SNORD29 /// SNORD31 / Fold change vs veh, SNHG1 /// SNORD22 /// SNORD25 /// SNORD26 /// SNORD27 /// SNORD28 /// SNORD29 /// SNORD31 / Fold change (Aza/veh), C12orf56 (ProbeSet 11735607_a_at) / Fold change (ACY-1035/veh), C12orf56 (ProbeSet 11735607_a_at) / Fold change (Aza/veh), FGFR1OP (ProbeSet 11751329_s_at) / Fold change (ACY-1035/veh), FGFR1OP (ProbeSet 11751329_s_at) / Fold change (Aza/veh), VPS36 (ProbeSet 11739960_a_at) / Fold change (ACY-1035/veh), VPS36 (ProbeSet 11739960_a_at) / RFU SYPL1 (11715823_x_at) / Fold change /veh SYPL1 (11715823_x_at) / RFU IGFBP7 (11715501_s_at) / Fold change /veh IGFBP7 (11715501_s_at) / RFU REEP3 (11722064_at) / Fold change /veh REEP3 (11722064_at) / RFU IGLL1 (11728026_x_at) / Fold change /veh IGLL1 (11728026_x_at): dose or concentration left out as unconfirmed
Conditions: MV-4-11 cells, 48 hours

Structure (SMILES): Nc1ncn([C@@H]2O[C@H](CO)[C@@H](O)[C@H]2O)c(=O)n1 [azacitidine]
- RFU RCAN1 (11760418_a_at): 18.64 RFU
